Results on 13 compounds are retold here after publication PMC11345828 (Journal of Medicinal Chemistry, 2024).

Series [1] deals with NCI-H929 cell line. Nature of the series: cells. The note with it: Homo sapiens, NCI-H929, read-out: NCI-H929 GI50. On the procedure: (§1) NCI-H1048 were cultured in custom medium prepared by PanBioTech containing DMEM/F12 + 5% fetal calf serum, 0.005 mg/mL insulin, 0.01 mg/mL transferrin, 30 nM sodium selenite, 10 nM hydrocortisone, 10 nM β-estradiol and […] 2 mM L-glutamine.
(§2) Suspension cells were plated immediately before compound addition. Adherent cell lines were incubated overnight at 37 °C in a tissue culture incubator prior to compound addition. Compounds were added in triplicates using an HP D300e Digital Dispenser (Hewlett-Packard) or manually at the concentrations indicated and total volumes were normalized using dimethyl sulfoxide (DMSO) backfill, with final DMSO concentration of 0.5%. Control wells were treated with DMSO only.

Series [2] relates to K562 cell line. Nature of the series: cells. The settings on record: Homo sapiens, K562, read-out: K562 GI50. On the procedure: as §1, §2
The nature of series [3]: Mouse IV PK. The note with it: for AUC/Dose / CL / improvement in the mouse IV clearance from (M)-18: mouse IV; for AUC/Dose: dose normalized; for clearance: mouse, plasma, iv; for improvement in the mouse IV clearance from (M)-18: relative to (M)-18.
Procedure: (§3) For PK analysis, mice and dogs were administered intravenously with compound formulated either in 10% ethanol and 10% Cremophor EL for mice or in 50% ethanol and 50% PEG500 for dogs. Plasma samples were obtained at predefined time points and compound concentrations in plasma were measured by quantitative HPLC-MS/MS using an internal standard. Calibration and quality control samples were prepared using blank plasma from untreated animals. Samples were precipitated with acetonitrile and injected into a HPLC system (Agilent 1200). […] The HPLC was interfaced by ESI operated in positive ionization mode to a triple quadrupole mass spectrometer (6500+ Triple Quad System, SCIEX) operated in multiple reaction monitoring mode. Chromatograms were analyzed with Analyst (SCIEX) and pharmacokinetic parameters were calculated by noncompartmental analysis using proprietary software.
Series [4] can be described thus: Dog IV PK. The note with it: dosed at 0.9 mg/kg.
Procedure: as §3

Values joined by “and” are separate entries in the source; they are usually repeats but may differ in a detail not shown here. Identical values can stand only once. Marks after values point to notes of the source that are not given here.

Consider `Cc1cc(OCCCc2c3n(c4c(-c5c(C)nn(C)c5C)c(Cl)ccc24)[C@H](C)CN(c2cccc4cc(C(=O)O)n(C)c24)C3=O)cc(C)c1Cl` [Compound 10, (R)-7-(7-Chloro-10-(3-(4-chloro-3,5-dimethylphenoxy)propyl)-4-methyl-1-oxo-6-(1,3,5-trimethyl-1H-pyrazol-4-yl)-3,4-dihydropyrazino[1,2-a]indol-2(1H)-yl)-1-methyl-1H-indole-2-carboxylic Acid], for which the GI50 is 187 ± 78 nM in series [1] and over 12.5 µM in series [2].

In the case of `COc1cc(N2C[C@@H](C)n3c(c(CCCOc4cc(C)c(Cl)c(C)c4)c4ccc(Cl)c(-c5c(C)nn(C)c5C)c43)C2=O)c2c(cc(C(=O)O)n2C)c1OC` [Compound 18, (M,R)-7-(7-Chloro-10-(3-(4-chloro-3,5-dimethylphenoxy)propyl)-4-methyl-1-oxo-6-(1,3,5-trimethyl-1H-pyrazol-4-yl)-3,4-dihydropyrazino[1,2-a]indol-2(1H)-yl)-4,5-dimethoxy-1-methyl-1H-indole-2-carboxylic Acid], the AUC/Dose in series [3] (dosed at 25 mg/kg) is on record as 252 nM*h/mpk. The compound also returned a clearance in series [3] (25 mg/kg) of 70 mL/min/kg.

For the compound `COc1cc(N2C[C@@H](C)n3c(c(CCCOc4cc(C)c(Cl)c(C)c4)c4ccc(Cl)c(-c5c(C)ncnc5C)c43)C2=O)c2c(cc(C(=O)O)n2C)c1OC` [Compound 19, (R)-7-(7-Chloro-10-(3-(4-chloro-3,5-dimethylphenoxy)propyl)-6-(4,6-dimethylpyrimidin-5-yl)-4-methyl-1-oxo-3,4-dihydropyrazino[1,2-a]indol-2(1H)-yl)-4,5-dimethoxy-1-methyl-1H-indole-2-carboxylic Acid], the GI50 in series [1] turned out to be 32 ± 14 nM; in series [2], 7 µM. In series [3] (dosed at 25 mg/kg), this compound returned a CL of 43 mL/min/kg. Moreover, in series [3] (dosed at 25 mg/kg, 25 mg/kg), the AUC/Dose was 499 nM*h/mpk and 499^c nM*h/mpk. For the same compound, the “improvement in the mouse IV clearance from (M)-18” value in series [3] is 2 fold. Besides, in series [3] (25 mg/kg), the clearance was 43 mL/min/kg.

`COc1cc(N2C[C@@H](C)n3c(c(CCCOc4cc(C)c(Cl)c(C)c4)c4ccc(Cl)c(-c5c(C)nc(C)nc5C)c43)C2=O)c2c(cc(C(=O)O)n2C)c1OC` [Compound 20, (R)-7-(7-Chloro-10-(3-(4-chloro-3,5-dimethylphenoxy)propyl)-4-methyl-1-oxo-6-(2,4,6-trimethylpyrimidin-5-yl)-3,4-dihydropyrazino[1,2-a]indol-2(1H)-yl)-4,5-dimethoxy-1-methyl-1H-indole-2-carboxylic Acid]: the values for the GI50 in series [1] and in series [2] were 33 ± 14 nM and 6.8 ± 3.3 µM, respectively. The same compound gave a CL in series [3] (dosed at 25 mg/kg) of 45 mL/min/kg. In series [3] (dosed at 25 mg/kg, 25 mg/kg), the AUC/Dose is 385 nM*h/mpk and 385^c nM*h/mpk. Further, in series [3], the “improvement in the mouse IV clearance from (M)-18” value is on record as 2 fold. In addition, the clearance in series [3] (25 mg/kg) amounted to 45 mL/min/kg.

As for `COCCOc1cc(N2C[C@@H](C)n3c(c(CCCOc4cc(C)c(Cl)c(C)c4)c4ccc(Cl)c(-c5c(C)ncnc5C)c43)C2=O)c2c(cc(C(=O)O)n2C)c1OC` [Compound 21, (R)-7-(7-Chloro-10-(3-(4-chloro-3,5-dimethylphenoxy)propyl)-6-(4,6-dimethylpyrimidin-5-yl)-4-methyl-1-oxo-3,4-dihydropyrazino[1,2-a]indol-2(1H)-yl)-4-methoxy-5-(2-methoxyethoxy)-1-methyl-1H-indole-2-carboxylic Acid], the concentration for 50% growth inhibition (GI50) in series [1] came out at 30 ± 13 nM. In series [2], the GI50 is over 12 µM. In series [3] (dosed at 25 mg/kg), the CL is 58 mL/min/kg and the AUC/Dose is given as 290^c nM*h/mpk. For the same compound, the clearance in series [3] (25 mg/kg) amounted to 58 mL/min/kg.

Turning to `COc1c(OCC2CCOCC2)cc(N2C[C@@H](C)n3c(c(CCCOc4cc(C)c(Cl)c(C)c4)c4ccc(Cl)c(-c5c(C)ncnc5C)c43)C2=O)c2c1cc(C(=O)O)n2C` [Compound 22, (R)-7-(7-Chloro-10-(3-(4-chloro-3,5-dimethylphenoxy)propyl)-6-(4,6-dimethylpyrimidin-5-yl)-4-methyl-1-oxo-3,4-dihydropyrazino[1,2-a]indol-2(1H)-yl)-4-methoxy-1-methyl-5-((tetrahydro-2H-pyran-4-yl)methoxy)-1H-indole-2-carboxylic Acid], the AUC/Dose in series [3] (dosed at 20 mg/kg) was 2830^d nM*h/mpk. For the same compound, the clearance in series [3] (20 mg/kg) and in series [3] (25 mg/kg) was 7 mL/min/kg in each case.

Take `COc1c(OC[C@H]2CCCO2)cc(N2C[C@@H](C)n3c(c(CCCOc4cc(C)c(Cl)c(C)c4)c4ccc(Cl)c(-c5c(C)ncnc5C)c43)C2=O)c2c1cc(C(=O)O)n2C` [Compound 24, 7-((R)-7-Chloro-10-(3-(4-chloro-3,5-dimethylphenoxy)propyl)-6-(4,6-dimethylpyrimidin-5-yl)-4-methyl-1-oxo-3,4-dihydropyrazino[1,2-a]indol-2(1H)-yl)-4-methoxy-1-methyl-5-(((R)-tetrahydrofuran-2-yl)methoxy)-1H-indole-2-carboxylic Acid]: in series [3] (dosed at 25 mg/kg), the CL was 15 mL/min/kg and the AUC/Dose was 1476^c nM*h/mpk. The clearance in series [3] (25 mg/kg) was determined as 15 mL/min/kg.

Turning to `COc1c(OC[C@@H]2CCCO2)cc(N2C[C@@H](C)n3c(c(CCCOc4cc(C)c(Cl)c(C)c4)c4ccc(Cl)c(-c5c(C)nc(C)nc5C)c43)C2=O)c2c1cc(C(=O)O)n2C` [Compound 27, 7-((R)-7-Chloro-10-(3-(4-chloro-3,5-dimethylphenoxy)propyl)-6-(2,4,6-trimethylpyrimidin-5-yl)-4-methyl-1-oxo-3,4-dihydropyrazino[1,2-a]indol-2(1H)-yl)-4-methoxy-1-methyl-5-(((S)-tetrahydrofuran-2-yl)methoxy)-1H-indole-2-carboxylic Acid], the AUC/Dose in series [4] was 2100 nM*h/mpk; in series [3] (dosed at 20 mg/kg), 2190^d nM*h/mpk. In series [4], this compound displayed a CL of 8.9 mL/min/kg. In series [4], the “CL (% hep blood flow)” value was determined as 29 % hep blood flow. Besides, the clearance in series [3] (20 mg/kg) and in series [3] (25 mg/kg) was 8.9 mL/min/kg throughout.

In the case of `COc1c(OC[C@H]2CCCO2)cc(N2C[C@@H](C)n3c(c(CCCOc4cc(C)c(Cl)c(C)c4)c4ccc(Cl)c(-c5c(C)nc(C)nc5C)c43)C2=O)c2c1cc(C(=O)O)n2C` [Compound 28, 7-((R)-7-Chloro-10-(3-(4-chloro-3,5-dimethylphenoxy)propyl)-6-(2,4,6-trimethylpyrimidin-5-yl)-4-methyl-1-oxo-3,4-dihydropyrazino[1,2-a]indol-2(1H)-yl)-4-methoxy-1-methyl-5-(((R)-tetrahydrofuran-2-yl)methoxy)-1H-indole-2-carboxylic Acid], the AUC/Dose in series [3] (dosed at 20 mg/kg) is reported as 2510^d nM*h/mpk. Further, the clearance in series [3] (20 mg/kg) and in series [3] (25 mg/kg) was 8.4 mL/min/kg each time.

Take `COc1c(O[C@H]2CCOC2)cc(N2C[C@@H](C)n3c(c(CCCOc4cc(C)c(Cl)c(C)c4)c4ccc(Cl)c(-c5c(C)nc(C)nc5C)c43)C2=O)c2c1cc(C(=O)O)n2C` [Compound 29, 7-((R)-7-Chloro-10-(3-(4-chloro-3,5-dimethylphenoxy)propyl)-4-methyl-1-oxo-6-(2,4,6-trimethylpyrimidin-5-yl)-3,4-dihydropyrazino[1,2-a]indol-2(1H)-yl)-4-methoxy-1-methyl-5-(((S)-tetrahydrofuran-3-yl)oxy)-1H-indole-2-carboxylic Acid]: the AUC/Dose was 1808 nM*h/mpk in series [4] and 1858^e nM*h/mpk in series [3] (dosed at 5 mg/kg). This compound registered a CL in series [4] of 12 mL/min/kg. Moreover, in series [4], the “CL (% hep blood flow)” value is 38 % hep blood flow. For the same compound, the clearance in series [3] (5 mg/kg) and in series [3] (25 mg/kg) was 19 mL/min/kg each time.

For `COc1c(O[C@@H]2CCOC2)cc(N2C[C@@H](C)n3c(c(CCCOc4cc(C)c(Cl)c(C)c4)c4ccc(Cl)c(-c5c(C)nc(C)nc5C)c43)C2=O)c2c1cc(C(=O)O)n2C` [Compound 30, 7-((R)-7-Chloro-10-(3-(4-chloro-3,5-dimethylphenoxy)propyl)-4-methyl-1-oxo-6-(2,4,6-trimethylpyrimidin-5-yl)-3,4-dihydropyrazino[1,2-a]indol-2(1H)-yl)-4-methoxy-1-methyl-5-(((R)-tetrahydrofuran-3-yl)oxy)-1H-indole-2-carboxylic Acid], the AUC/Dose in series [3] (dosed at 20 mg/kg) is 1425^d nM*h/mpk. The clearance in series [3] (20 mg/kg) and in series [3] (25 mg/kg) was 13 mL/min/kg in each case.

Regarding `CCOc1c(O[C@H]2CCOC2)cc(N2C[C@@H](C)n3c(c(CCCOc4cc(C)c(Cl)c(C)c4)c4ccc(Cl)c(-c5c(C)nc(C)nc5C)c43)C2=O)c2c1cc(C(=O)O)n2C` [Compound 31, 7-((R)-7-Chloro-10-(3-(4-chloro-3,5-dimethylphenoxy)propyl)-4-methyl-1-oxo-6-(2,4,6-trimethylpyrimidin-5-yl)-3,4-dihydropyrazino[1,2-a]indol-2(1H)-yl)-4-ethoxy-1-methyl-5-(((S)-tetrahydrofuran-3-yl)oxy)-1H-indole-2-carboxylic Acid], the AUC/Dose in series [3] (dosed at 20 mg/kg) is on record as 2465^d nM*h/mpk. Further, the clearance in series [3] (20 mg/kg) and in series [3] (25 mg/kg) was 8.7 mL/min/kg in each case.

Regarding `CCOc1c(OCC2CCOCC2)cc(N2C[C@@H](C)n3c(c(CCCOc4cc(C)c(Cl)c(C)c4)c4ccc(Cl)c(-c5c(C)nc(C)nc5C)c43)C2=O)c2c1cc(C(=O)O)n2C` [Compound 32, (R)-7-(7-Chloro-10-(3-(4-chloro-3,5-dimethylphenoxy)propyl)-4-methyl-1-oxo-6-(2,4,6-trimethylpyrimidin-5-yl)-3,4-dihydropyrazino[1,2-a]indol-2(1H)-yl)-4-ethoxy-1-methyl-5-((tetrahydro-2H-pyran-4-yl)methoxy)-1H-indole-2-carboxylic Acid], the AUC/Dose in series [3] (dosed at 20 mg/kg) was 4930^d nM*h/mpk. Also, the clearance in series [3] (20 mg/kg) and in series [3] (25 mg/kg) was 3.7 mL/min/kg in each case.

A word on the GI50: it is the concentration that inhibits growth by half. A word on the clearance: it is the volume of plasma or blood freed of the substance per unit of time. A higher clearance goes with efficient removal.
